Experimental data: patent US20090137661A1, “PLANT DERIVED COMPOUNDS AND COMPOUND FORMULAE CONTAINING THE SAME FOR THE TREATMENT OF CERVICAL CANCER” (priority 2007, published 2009)
Converted amounts (≈) assume the structure as drawn. Where a name gives a salt, the structure may show the parent alone. Read-outs that look alike come from different tables or passages of the source.

Experiments:
HeLa cells [1] = test: MTT assay within the anti-infection screening platform; type: cell-based, human; details: 48 hours, concentrations inhibiting HPV 16 pseudovirus
Description: (§1) Carrageenan was used as positive control. […] The cell survival rate and IC50 of each sample were obtained in accordance with the method stated above.

HPV 16 pseudovirus = test: Screening for anti-infection compounds (GFP-expressing HPV 16 pseudovirus infecting HeLa cells); type: cell-based, human papilloma virus 16
Procedure: […] were co-transfected with codon-modified papillomavirus capsid genes, L1 and L2, plasmid: p16shell, and a GFP reporter plasmid, pClneo-GFP, to monitor the infectivity of the stock.
The GFP-expressing HPV 16 pseudoviruses were prepared and harvested in accordance with the protocol provided by the National Cancer Institute (USA). Said protocol is available on line at http://home.ccr.cancer.gov/lco/production.asp which is incorporated herein by reference in its entirety.
In the present application, the GFP-expressing HPV 16 pseudoviruses used have titers of about 4*10^8 infectious units per ml.
HeLa cells were seeded in 96-well plates at a density of 6×10^3 cells per well. 24 hours later, 2×HPV 16 pseudoviruses of various volumes were added. The signal to background ratio of each volume of the HPV 16 pseudoviruses was illustrated in FIG. 2.
When choosing screening platform, the infection rate should be around 20%. […] Under this dosage, the signal to background ratio is 2.0-2.5.
as §1

HUVEC cells = test: Cytotoxicity assay (MTT assay) on HUVEC cells; type: cell-based, human; details: for IC50: Homo sapiens
Description: Human umbilical vein endothelial cells (HUVEC) were purchased from Food Industry Research and Development Institute in Hsin-Chu City, Taiwan. HUVEC cells were propagated and maintained in Medium 199 supplemented with 10% FBS, Heparin, and […].
(§2) Cytotoxicity Assay (MTT Assay)

HeLa cells [2] = test: Cytotoxicity assay (MTT assay) on HeLa cells; details: for IC50: Homo sapiens, HeLa; for cytotoxicity to HeLa cells compared with Doxorubicin HCl: under the corresponding conditions
Procedure: HeLa cell line was obtained from Dr. S. S. Shen (Biomedical Engineering Research Laboratories of Industrial Technology Research Institute of Taiwan). HeLa cells are adherent cells and were propagated and maintained in Dulbecco's modified Eagle's medium (DMEM) supplemented with 10% fetal bovine serum (FBS), […] sodium bicarbonate (NaHCO3), 1 mM sodium pyruvate, and 0.1 mM non-essential amino acid.
as §2
The cytotoxicity of the compounds set forth herein to HeLa cells and HUVEC cells were determined by the MTT assay. The HUVEC cells were used to understand the cytotoxicity of said compounds to normal human cells. Besides, doxorubicin HCl was used as a comparative example so as to investigate the efficacy of the compounds according to the embodiments of the present invention.
Briefly, the MTT assay comprises the following steps: • (A) Cells were seeded in 96-well plates 3 hours before treatment, wherein the density of HeLa cell is 1×10^4 cells per well and the density of HUVEC cell is 2×10^4 cells per well; • (B) Cells were then treated with various concentrations of tested samples and incubated for a predetermined period (24, 48, and 72 hours); • (C) After the predetermined periods expired, the tested samples were removed and 100 μl MTT reagent (1 mg/ml) was added to each well; • (D) The plates were incubated at 37° C. with 5% of CO2 for 5 hours; • (E) The MTT reagent was removed and 100 μl DMSO was added to each well; • (F) The optical density (O.D.) of each well was determined by ELISA reader at a wavelength of 560 nm.
Each experiment was repeated for 3 times and the result shown in the tables herein were the mean value of the 3 repetitions. The O.D. of the vehicle control and experimental groups were recorded. The cell survival rate of each sample was calculated as follows:
Cell survival rate(%)=O.D.control/O.D.experimental*100%
Then, the cell survival rate was plotted against the compound concentration and the IC50 value of each compound was calculated by the GraFit data analysis software (Erithacus Software Ltd.).

[3] = HUVEC cells, 24 hours, read-out: IC50 at 24 hours, HUVEC
[4] = HUVEC cells, 48 hours, read-out: IC50 at 48 hours, HUVEC
[5] = HUVEC cells, 72 hours, read-out: IC50 at 72 hours, HUVEC
[6] = 24 h, read-out: IC50 at 24 hours, HeLa
[7] = 48 h, read-out: IC50 at 48 hours, HeLa
[8] = 72 h, read-out: IC50 at 72 hours, HeLa

O=c1cc(-c2ccccc2)oc2cc(O)c(O)c(O)c12 [Compound C, baicalein]
survival rates of HeLa cells in anti-infection screening (HeLa cells [1]): higher than 80%
IC50 (HPV 16 pseudovirus; Pseudovirus, HeLa, 48 h, read-out: IC50 for inhibiting HPV 16 pseudoviruses): 8.2 µg/mL (≈ 30.3 µM)

Carrageenan [reference compound]
IC50 for inhibiting HPV 16 pseudoviruses (HPV 16 pseudovirus; HeLa cells infected with 0.25 μl HPV 16 pseudovirus per well, 48 hours): about 0.07 μg/ml

Cc1cc2c(C(C)C)c(O)c(O)c(C=O)c2c(O)c1-c1c(C)cc2c(C(C)C)c(O)c(O)c(C=O)c2c1O [Compound F, gossypol-acetic acid]
HUVEC Cell Survival Rate (HUVEC cells; 0.1 μg/ml, 24 hrs): 93%
HUVEC Cell Survival Rate (HUVEC cells; 0.1 μg/ml, 48 hrs): 104%
HUVEC Cell Survival Rate (HUVEC cells; 0.1 μg/ml, 72 hrs): 103%
HUVEC Cell Survival Rate (HUVEC cells; 1 μg/ml, 24 hrs): 88%
HUVEC Cell Survival Rate (HUVEC cells; 1 μg/ml, 48 hrs): 104%
HUVEC Cell Survival Rate (HUVEC cells; 1 μg/ml, 72 hrs): 98%
HUVEC Cell Survival Rate (HUVEC cells; 10 μg/ml, 24 hrs): 80%
HUVEC Cell Survival Rate (HUVEC cells; 10 μg/ml, 48 hrs): 85%
HUVEC Cell Survival Rate (HUVEC cells; 10 μg/ml, 72 hrs): 71%
HUVEC Cell Survival Rate (HUVEC cells; 100 μg/ml, 24 hrs): 20%
HUVEC Cell Survival Rate (HUVEC cells; 100 μg/ml, 48 hrs): 17%
HUVEC Cell Survival Rate (HUVEC cells; 100 μg/ml, 72 hrs): 17%
IC50 (HUVEC cells; [3]): 30 µg/mL (≈ 57.9 µM)
IC50 (HUVEC cells; [4]): 33 µg/mL (≈ 63.6 µM)
IC50 (HUVEC cells; [5]): 23 µg/mL (≈ 44.4 µM)
HeLa Cell Survival Rate (HeLa cells [2]; 0.1 μg/ml, 24 hrs): 101%
HeLa Cell Survival Rate (HeLa cells [2]; 0.1 μg/ml, 48 hrs): 103%
HeLa Cell Survival Rate (HeLa cells [2]; 0.1 μg/ml, 72 hrs): 98%
HeLa Cell Survival Rate (HeLa cells [2]; 1 μg/ml, 24 hrs): 97%
HeLa Cell Survival Rate (HeLa cells [2]; 1 μg/ml, 48 hrs): 105%
HeLa Cell Survival Rate (HeLa cells [2]; 1 μg/ml, 72 hrs): 98%
HeLa Cell Survival Rate (HeLa cells [2]; 10 μg/ml, 24 hrs): 80%
HeLa Cell Survival Rate (HeLa cells [2]; 10 μg/ml, 48 hrs): 52%
HeLa Cell Survival Rate (HeLa cells [2]; 10 μg/ml, 72 hrs): 40%
HeLa Cell Survival Rate (HeLa cells [2]; 100 μg/ml, 24 hrs): 17%
HeLa Cell Survival Rate (HeLa cells [2]; 100 μg/ml, 48 hrs): 13%
HeLa Cell Survival Rate (HeLa cells [2]; 100 μg/ml, 72 hrs): 10%
HUVEC/HeLa ratio of IC50 (HeLa cells [2]; 24 hours): 1.0
HUVEC/HeLa ratio of IC50 (HeLa cells [2]; 48 hours): 2.8
HUVEC/HeLa ratio of IC50 (HeLa cells [2]; 72 hours): 2.9
IC50 (HeLa cells [2]; [6]): 29 µg/mL (≈ 55.9 µM)
IC50 (HeLa cells [2]; [7]): 12 µg/mL (≈ 23.1 µM)
IC50 (HeLa cells [2]; [8]): 8 µg/mL (≈ 15.4 µM)
cytotoxicity to HeLa cells compared with Doxorubicin HCl (HeLa cells [2]): higher cytotoxicity

COc1cccc2c1C(=O)c1c(O)c3c(c(O)c1C2=O)C[C@@](O)(C(=O)CO)C[C@@H]3O[C@H]1C[C@H](N)[C@H](O)[C@H](C)O1 [Doxorubin HCl, Doxorubicin HCl, reference compound]
HUVEC Cell Survival Rate (HUVEC cells; 0.145 μg/ml, 24 hrs): 111%
HUVEC Cell Survival Rate (HUVEC cells; 0.145 μg/ml, 48 hrs): 77%
HUVEC Cell Survival Rate (HUVEC cells; 0.145 μg/ml, 72 hrs): 68%
HUVEC Cell Survival Rate (HUVEC cells; 0.290 μg/ml, 24 hrs): 100%
HUVEC Cell Survival Rate (HUVEC cells; 0.290 μg/ml, 48 hrs): 56%
HUVEC Cell Survival Rate (HUVEC cells; 0.290 μg/ml, 72 hrs): 38%
HUVEC Cell Survival Rate (HUVEC cells; 0.580 μg/ml, 24 hrs): 90%
HUVEC Cell Survival Rate (HUVEC cells; 0.580 μg/ml, 48 hrs): 19%
HUVEC Cell Survival Rate (HUVEC cells; 0.580 μg/ml, 72 hrs): 14%
IC50 (HUVEC cells; [3]): > 0.58 µg/mL
IC50 (HUVEC cells; [4]): 0.299 µg/mL
IC50 (HUVEC cells; [5]): 0.22 µg/mL
HeLa Cell Survival Rate (HeLa cells [2]; 0.00058 μg/ml, 24 hrs): 96%
HeLa Cell Survival Rate (HeLa cells [2]; 0.00058 μg/ml, 48 hrs): 100%
HeLa Cell Survival Rate (HeLa cells [2]; 0.00058 μg/ml, 72 hrs): 97%
HeLa Cell Survival Rate (HeLa cells [2]; 0.0058 μg/ml, 24 hrs): 95%
HeLa Cell Survival Rate (HeLa cells [2]; 0.0058 μg/ml, 48 hrs): 92%
HeLa Cell Survival Rate (HeLa cells [2]; 0.0058 μg/ml, 72 hrs): 89%
HeLa Cell Survival Rate (HeLa cells [2]; 0.058 μg/ml, 24 hrs): 84%
HeLa Cell Survival Rate (HeLa cells [2]; 0.058 μg/ml, 48 hrs): 81%
HeLa Cell Survival Rate (HeLa cells [2]; 0.058 μg/ml, 72 hrs): 72%
HeLa Cell Survival Rate (HeLa cells [2]; 0.58 μg/ml, 24 hrs): 46%
HeLa Cell Survival Rate (HeLa cells [2]; 0.58 μg/ml, 48 hrs): 23%
HeLa Cell Survival Rate (HeLa cells [2]; 0.58 μg/ml, 72 hrs): 11%
HUVEC/HeLa ratio of IC50 (HeLa cells [2]; 24 hours): >1.2
HUVEC/HeLa ratio of IC50 (HeLa cells [2]; 48 hours): 1.5
HUVEC/HeLa ratio of IC50 (HeLa cells [2]; 72 hours): 1.8
IC50 (HeLa cells [2]; [6]): 0.48 µg/mL
IC50 (HeLa cells [2]; [7]): 0.2 µg/mL
IC50 (HeLa cells [2]; [8]): 0.12 µg/mL

isopsoralen [Compound A]
HUVEC Cell Survival Rate (HUVEC cells; 0.125 μg/ml, 24 hrs): 103%
HUVEC Cell Survival Rate (HUVEC cells; 0.125 μg/ml, 48 hrs): 104%
HUVEC Cell Survival Rate (HUVEC cells; 0.125 μg/ml, 72 hrs): 92%
HUVEC Cell Survival Rate (HUVEC cells; 1.25 μg/ml, 24 hrs): 103%
HUVEC Cell Survival Rate (HUVEC cells; 1.25 μg/ml, 48 hrs): 96%
HUVEC Cell Survival Rate (HUVEC cells; 1.25 μg/ml, 72 hrs): 87%
HUVEC Cell Survival Rate (HUVEC cells; 12.5 μg/ml, 24 hrs): 100%
HUVEC Cell Survival Rate (HUVEC cells; 12.5 μg/ml, 48 hrs): 83%
HUVEC Cell Survival Rate (HUVEC cells; 12.5 μg/ml, 72 hrs): 80%
HUVEC Cell Survival Rate (HUVEC cells; 125 μg/ml, 24 hrs): 67%
HUVEC Cell Survival Rate (HUVEC cells; 125 μg/ml, 48 hrs): 31%
HUVEC Cell Survival Rate (HUVEC cells; 125 μg/ml, 72 hrs): 19%
IC50 at 24 hours, HUVEC (HUVEC cells; HUVEC cells, 24 hours): >125 µg/mL
IC50 at 48 hours, HUVEC (HUVEC cells; HUVEC cells, 48 hours): 57 µg/mL
IC50 at 72 hours, HUVEC (HUVEC cells; HUVEC cells, 72 hours): 38 µg/mL
HeLa Cell Survival Rate (HeLa cells [2]; 0.125 μg/ml, 24 hrs): 91%
HeLa Cell Survival Rate (HeLa cells [2]; 0.125 μg/ml, 48 hrs): 99%
HeLa Cell Survival Rate (HeLa cells [2]; 0.125 μg/ml, 72 hrs): 98%
HeLa Cell Survival Rate (HeLa cells [2]; 1.25 μg/ml, 24 hrs): 88%
HeLa Cell Survival Rate (HeLa cells [2]; 1.25 μg/ml, 48 hrs): 75%
HeLa Cell Survival Rate (HeLa cells [2]; 1.25 μg/ml, 72 hrs): 69%
HeLa Cell Survival Rate (HeLa cells [2]; 12.5 μg/ml, 24 hrs): 70%
HeLa Cell Survival Rate (HeLa cells [2]; 12.5 μg/ml, 48 hrs): 30%
HeLa Cell Survival Rate (HeLa cells [2]; 12.5 μg/ml, 72 hrs): 10%
HeLa Cell Survival Rate (HeLa cells [2]; 125 μg/ml, 24 hrs): 18%
HeLa Cell Survival Rate (HeLa cells [2]; 125 μg/ml, 48 hrs): 11%
HeLa Cell Survival Rate (HeLa cells [2]; 125 μg/ml, 72 hrs): 7%
HUVEC/HeLa ratio of IC50 (HeLa cells [2]; 24 hours): >4.6
HUVEC/HeLa ratio of IC50 (HeLa cells [2]; 48 hours): 11.4
HUVEC/HeLa ratio of IC50 (HeLa cells [2]; 72 hours): 19
IC50 at 24 hours, HeLa (HeLa cells [2]; HeLa cells, 24 hours): 27 µg/mL
IC50 at 48 hours, HeLa (HeLa cells [2]; HeLa cells, 48 hours): 5 µg/mL
IC50 at 72 hours, HeLa (HeLa cells [2]; HeLa cells, 72 hours): 2 µg/mL
cytotoxicity to HeLa cells compared with Doxorubicin HCl (HeLa cells [2]): higher cytotoxicity
